These results are taken from US7514448B2, “Azaindoles useful as inhibitors of rock and other protein kinases” (Vertex Pharmaceuticals Incorporated, priority 2004, dated 2009).

One assay addresses ROCK (Homo sapiens, UniProt Q13464). The assay can be described thus: ROCK radioactive assay ("33P"). The assay is classed as biochemical. The following applies: radioactive assay; average Ki if more than one determined; read-out: ROCK 33P Ki. An excerpt:
If more than one value of Ki has been determined, the average Ki is indicated. If no value is indicated, then the Ki was not determined.

The target of another assay is PKA (Homo sapiens, UniProt P17612). Kind of assay: PKA inhibition assay, coupled enzyme. The assay is classed as biochemical. The following applies: average Ki if more than one determined. On the procedure:
Compounds were screened for their ability to inhibit PKA using a standard coupled enzyme assay (Fox et al., Protein Sci, 1998, 7, 2249). Assays were carried out in a mixture of 100 mM HEPES (pH 7.5), 10 mM MgCl2, 25 mM NaCl, 1 mM DTT and 3% DMSO. Final substrate concentrations in the assay were 50 μM ATP (Sigma Chemicals) and 80 μM peptide (Kemptide, American Peptide, Sunnyvale, Calif.). Assays were carried out at 30° C. and 18 nM PKA. Final concentrations of the components of the coupled enzyme system were 2.5 mM phosphoenolpyruvate, 300 μM NADH, 30 μg/ml pyruvate kinase and 10 μg/ml lactate dehydrogenase.
An assay stock buffer solution was prepared containing all of the reagents listed above, with the exception of ATP, and the test compound of the present invention. […] The plate was preincubated for 10 minutes at 30° C. and the reaction initiated by addition of 5 μl of ATP (final concentration 50 μM). Initial reaction rates were determined with a Molecular Devices SpectraMax Plus plate reader over a 15 minute time course. IC50 and Ki data were calculated from non-linear regression analysis using the Prism software package (GraphPad Prism version 3.0a for Macintosh, GraphPad Software, San Diego Calif., USA).

Chain of ROCK (Q13464 whole entry): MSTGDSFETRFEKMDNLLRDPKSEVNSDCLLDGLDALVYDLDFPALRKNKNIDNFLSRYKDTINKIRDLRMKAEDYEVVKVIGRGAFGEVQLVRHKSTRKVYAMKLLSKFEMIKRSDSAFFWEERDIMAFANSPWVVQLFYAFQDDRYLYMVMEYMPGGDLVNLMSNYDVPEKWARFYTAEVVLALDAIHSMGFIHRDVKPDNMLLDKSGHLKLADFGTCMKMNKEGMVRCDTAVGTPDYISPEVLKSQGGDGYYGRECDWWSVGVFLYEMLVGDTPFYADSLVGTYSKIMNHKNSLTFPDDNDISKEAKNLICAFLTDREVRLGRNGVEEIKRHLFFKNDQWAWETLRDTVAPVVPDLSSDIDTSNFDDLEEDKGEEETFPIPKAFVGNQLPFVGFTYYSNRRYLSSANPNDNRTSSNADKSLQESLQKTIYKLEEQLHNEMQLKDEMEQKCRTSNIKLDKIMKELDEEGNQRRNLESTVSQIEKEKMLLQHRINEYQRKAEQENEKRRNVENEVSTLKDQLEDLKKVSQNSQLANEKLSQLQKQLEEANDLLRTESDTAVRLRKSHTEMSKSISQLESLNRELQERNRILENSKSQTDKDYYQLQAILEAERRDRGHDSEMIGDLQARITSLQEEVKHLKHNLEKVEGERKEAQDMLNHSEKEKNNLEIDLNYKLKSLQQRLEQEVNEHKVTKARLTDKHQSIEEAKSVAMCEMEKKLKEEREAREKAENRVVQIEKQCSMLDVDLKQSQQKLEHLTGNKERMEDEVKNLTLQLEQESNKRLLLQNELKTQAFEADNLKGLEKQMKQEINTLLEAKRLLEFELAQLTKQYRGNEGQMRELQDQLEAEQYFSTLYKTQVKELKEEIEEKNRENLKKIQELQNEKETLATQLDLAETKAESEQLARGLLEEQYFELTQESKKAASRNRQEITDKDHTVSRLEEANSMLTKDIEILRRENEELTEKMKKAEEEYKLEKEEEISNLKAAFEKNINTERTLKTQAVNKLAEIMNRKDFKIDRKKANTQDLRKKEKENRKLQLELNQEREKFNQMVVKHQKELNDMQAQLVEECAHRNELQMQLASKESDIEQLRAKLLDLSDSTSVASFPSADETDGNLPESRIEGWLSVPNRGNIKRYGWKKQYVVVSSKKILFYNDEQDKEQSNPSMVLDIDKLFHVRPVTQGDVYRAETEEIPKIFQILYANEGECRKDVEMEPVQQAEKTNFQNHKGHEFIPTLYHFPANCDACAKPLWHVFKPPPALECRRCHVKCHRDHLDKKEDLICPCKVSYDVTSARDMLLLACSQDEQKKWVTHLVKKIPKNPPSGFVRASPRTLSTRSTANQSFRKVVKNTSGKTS

Take `O=C1CC[C@H](C(=O)Nc2nc(-c3c[nH]c4ncccc34)cs2)O1` [II-155]: the inhibition constant Ki on ROCK and at PKA was below 500 nM throughout.
In the case of `CCCC(C(=O)Nc1nc(-c2c[nH]c3ncccc23)cs1)S(=O)(=O)CC` (stereo not shown) [II-225], the Ki (as a rule, the dissociation constant of the complex between target and ligand, obtained from inhibition or displacement) on ROCK is below 500 nM; on PKA, 500 to 5000 nM.
Regarding `CS(=O)(=O)N1CCC[C@H]1C(=O)Nc1nc(-c2c[nH]c3ncccc23)cs1` [II-229], the Ki at ROCK and at PKA was below 500 nM each time.
With `O=C(N[C@@H](CO)c1ccccc1)c1nc(-c2c[nH]c3ncccc23)cs1` [II-185], the Ki at ROCK is below 500 nM; at PKA, 500 to 5000 nM.
Turning to `CN(CC(=O)Nc1nc(-c2c[nH]c3ncccc23)cs1)S(C)(=O)=O` [II-231], the Ki at ROCK and on PKA was below 500 nM throughout.
For `CS(=O)(=O)Nc1cccc(C(N)C(=O)Nc2nc(-c3c[nH]c4ncccc34)cs2)c1` (stereo not shown) [II-219], the Ki on ROCK and at PKA was below 500 nM throughout.
Regarding `CS(=O)(=O)Nc1cccc(C(O)C(=O)Nc2nc(-c3c[nH]c4ncccc34)cs2)c1` (stereo not shown) [II-211], the Ki at ROCK and on PKA was below 500 nM each time.
For `O=C1CCC(C(=O)Nc2nc(-c3c[nH]c4ncccc34)cs2)N1` (stereo not shown) [II-153], the Ki is below 500 nM on ROCK and 500 to 5000 nM on PKA.
Taken in the same sequence, the figures for `O=C1CC[C@@H](C(=O)Nc2nc(-c3c[nH]c4ncccc34)cs2)N1` [II-148] were below 500 nM and below 500 nM.
On the same counts, the results for `Nc1cccc(C(O)C(=O)Nc2nc(-c3c[nH]c4ncccc34)cs2)c1` (stereo not shown) [II-212] are below 500 nM and below 500 nM.
Taken in the same sequence, the figures for `NCC(C(=O)Nc1nc(-c2c[nH]c3ncccc23)cs1)c1ccccc1Cl` (stereo not shown) [II-194] were below 500 nM and below 500 nM.
For the molecule `O=C(Nc1nc(-c2c[nH]c3ncccc23)cs1)N1CCOCC1` [II-236], the Ki at ROCK and on PKA was 500 to 5000 nM throughout.
For the molecule `c1coc(CNc2nc(-c3c[nH]c4ncccc34)cs2)c1` [II-199], the results for the Ki at ROCK and at PKA were below 500 nM and 500 to 5000 nM, respectively.
Take `CN1CCN(C(=O)Nc2nc(-c3c[nH]c4ncccc34)cs2)CC1` [II-237]: the Ki at ROCK and on PKA was 500 to 5000 nM each time.
Turning to `CC(=O)N[C@H](C)C(=O)Nc1nc(-c2c[nH]c3ncccc23)cs1` [II-156], the Ki on ROCK is below 500 nM; at PKA, 500 to 5000 nM.
On the same counts, the results for `CCC(=O)Nc1nc(-c2c[nH]c3ncccc23)cs1` [II-163] are below 500 nM and 500 to 5000 nM.
As to `O=C(NCCO)Nc1nc(-c2c[nH]c3ncccc23)cs1` [II-235], the Ki on ROCK and at PKA was 500 to 5000 nM in each case.
`O=C(Cc1cccnc1)Nc1nc(-c2c[nH]c3ncc(F)cc23)cs1` [II-206]: the Ki on ROCK and on PKA was below 500 nM in each case.
Take `COc1cccc(C(O)C(=O)Nc2nc(-c3c[nH]c4ncccc34)cs2)c1` (stereo not shown) [II-208]: the Ki at ROCK and at PKA was below 500 nM throughout.
Regarding `O=C(Cc1cccnc1)Nc1nc(-c2c[nH]c3ncccc23)cs1` [II-205], the Ki at ROCK and at PKA was below 500 nM throughout.
Turning to `CS(=O)(=O)Nc1ccc(F)c(CC(=O)Nc2nc(-c3c[nH]c4ncc(F)cc34)cs2)c1` [II-151], the inhibition constant (Ki) at ROCK and on PKA was below 500 nM throughout.
On to `CCNC(=O)Nc1nc(-c2c[nH]c3ncccc23)cs1` [II-234], for which the Ki on ROCK and at PKA was 500 to 5000 nM in each case.
As for `O=C(Cc1cccc(NS(=O)(=O)CCCN2CCCCC2)c1)Nc1nc(-c2c[nH]c3ncccc23)cs1` [II-168], the Ki on ROCK and at PKA was below 500 nM each time.
In the case of `N[C@H](Cc1ccccc1)C(=O)Nc1nc(-c2c[nH]c3ncccc23)cs1` [II-177], the Ki on ROCK and on PKA was below 500 nM throughout.
On to `O=C(Nc1nc(-c2c[nH]c3ncccc23)cs1)N1CCNCC1` [II-243], for which the Ki at ROCK and on PKA was 500 to 5000 nM each time.
On to `O=C(Nc1nc(-c2c[nH]c3ncccc23)cs1)C1CCCO1` (stereo not shown) [II-154], for which the Ki on ROCK and on PKA was below 500 nM in each case.
On to `O=C(CNCc1ccccc1)Nc1nc(-c2c[nH]c3ncccc23)cs1` [II-188], for which the Ki at ROCK and on PKA was below 500 nM throughout.
For the molecule `CC(C)[C@@H](NS(C)(=O)=O)C(=O)Nc1nc(-c2c[nH]c3ncccc23)cs1` [II-227], the Ki at ROCK and at PKA was below 500 nM throughout.
With `O=C(Nc1nc(-c2c[nH]c3ncccc23)cs1)C1CCOC1` (stereo not shown) [II-172], the Ki at ROCK and at PKA was below 500 nM throughout.
Turning to `CS(=O)(=O)N1CCC[C@@H]1C(=O)Nc1nc(-c2c[nH]c3ncccc23)cs1` [II-230], the Ki on ROCK and at PKA was below 500 nM throughout.
For `CC(=O)NCC(=O)Nc1nc(-c2c[nH]c3ncccc23)cs1` [II-149], the Ki on ROCK is below 500 nM; at PKA, 500 to 5000 nM.
Taken in the same sequence, the figures for `O=C1CC[C@@H](C(=O)Nc2nc(-c3c[nH]c4ncccc34)cs2)O1` [II-146] were below 500 nM and 500 to 5000 nM.
Taken in the same sequence, the figures for `CS(=O)(=O)Nc1cccc(CC(=O)Nc2nc(-c3c[nH]c4ncc(O)cc34)cs2)c1` [II-132] were below 500 nM and 500 to 5000 nM.
For `COc1cccc(CC(=O)N(CCCN2CCN(C)CC2)c2nc(-c3c[nH]c4ncccc34)cs2)c1` [II-202], the Ki at ROCK and at PKA was below 500 nM each time.
For `O=C(Cc1ccccc1)Nc1nc(-c2c[nH]c3ncc(O)cc23)cs1` [II-131], the Ki at ROCK and at PKA was below 500 nM each time.
Turning to `CC(C)CC(=O)C(=O)Nc1nc(-c2c[nH]c3ncccc23)cs1` [II-160], the inhibition constant Ki on ROCK and on PKA was below 500 nM in each case.
Take `O=C(NC1CCN(Cc2ccccc2)C1)c1nc(-c2c[nH]c3ncccc23)cs1` (stereo not shown) [II-186]: the Ki on ROCK is below 500 nM; on PKA, 500 to 5000 nM.
Taken in the same sequence, the figures for `O=C(Nc1nc(-c2c[nH]c3ncccc23)cs1)N1CCCCC1` [II-238] were 500 to 5000 nM and 500 to 5000 nM.
As for `NCCC(C(=O)Nc1nc(-c2c[nH]c3ncccc23)cs1)c1ccc(F)cc1F` (stereo not shown) [II-191], the Ki on ROCK and at PKA was below 500 nM each time.
With `N[C@@H](Cc1ccccc1)C(=O)Nc1nc(-c2c[nH]c3ncccc23)cs1` [II-176], the Ki at ROCK and at PKA was below 500 nM in each case.
With `COc1ccc(CC(=O)Nc2nc(-c3c[nH]c4ncc(F)cc34)cs2)c(Cl)c1` [II-150], the Ki on ROCK and on PKA was below 500 nM each time.
Take `CC(C)S(=O)(=O)NCC(=O)Nc1nc(-c2c[nH]c3ncccc23)cs1` [II-220]: the Ki at ROCK and at PKA was below 500 nM throughout.
Take `O=C(Nc1nc(-c2c[nH]c3ncccc23)cs1)N1CCCC1` [II-241]: the Ki on ROCK and on PKA was 500 to 5000 nM each time.
As for `CS(=O)(=O)NCC(=O)Nc1nc(-c2c[nH]c3ncccc23)cs1` [II-217], the Ki on ROCK and at PKA was below 500 nM each time.
`COCC(=O)Nc1nc(-c2c[nH]c3ncccc23)cs1` [II-142]: the Ki on ROCK is below 500 nM; on PKA it was 500 to 5000 nM.
On the same counts, the results for `O=C(CO)Nc1nc(-c2c[nH]c3ncccc23)cs1` [II-157] are below 500 nM and 500 to 5000 nM.
On the same counts, the results for `O=C(Cc1cccc(OCCCC2CCNCC2)c1)Nc1nc(-c2c[nH]c3ncc(F)cc23)cs1` [II-135] are below 500 nM and below 500 nM.
